Results: PubChem BioAssay (NCI)
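GI50 = concentration required for 50% inhibition of growth. Definition used: TGI = concentration required for complete inhibition of growth.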

Key:
Experiment in all cases: NCI-60 cell line screen, 384-well format
SK-MEL-5 melanoma = system: SK-MEL-5 melanoma
MOLT-4 leukemia = system: MOLT-4 leukemia
IGROV1 ovarian = system: IGROV1 ovarian
OVCAR-8 ovarian = system: OVCAR-8 ovarian
A498 renal = system: A498 renal
OVCAR-4 ovarian = system: OVCAR-4 ovarian
OVCAR-3 ovarian = system: OVCAR-3 ovarian
UACC-257 melanoma = system: UACC-257 melanoma
HOP-62 NSCLC = system: HOP-62 NSCLC
LOX IMVI melanoma = system: LOX IMVI melanoma
RXF 393 renal = system: RXF 393 renal
NCI/ADR-RES ovarian = system: NCI/ADR-RES ovarian
KM12 colon = system: KM12 colon
K-562 leukemia = system: K-562 leukemia
NCI-H23 lung = system: NCI-H23 lung
SNB-19 CNS = system: SNB-19 CNS
HOP-92 NSCLC = system: HOP-92 NSCLC
UACC-62 melanoma = system: UACC-62 melanoma
TK-10 renal = system: TK-10 renal
U251 glioblastoma = system: U251 glioblastoma
NCI-H226 lung = system: NCI-H226 lung
ACHN renal = system: ACHN renal
DU-145 prostate = system: DU-145 prostate
RPMI-8226 leukemia = system: RPMI-8226 leukemia
CAKI-1 renal = system: CAKI-1 renal
EKVX NSCLC = system: EKVX NSCLC
SW-620 colon = system: SW-620 colon
SF-539 CNS = system: SF-539 CNS

CC(C)N=C(N)/N=C(\N)Nc1ccc2ccc3ccccc3c2c1
GI50 (SK-MEL-5 melanoma): 1110 nM
TGI (SK-MEL-5 melanoma): 2330 nM
GI50 (MOLT-4 leukemia): 1360 nM
TGI (MOLT-4 leukemia): 2650 nM
GI50 (IGROV1 ovarian): 1020 nM
TGI (IGROV1 ovarian): 2210 nM
GI50 (OVCAR-8 ovarian): 1700 nM
TGI (OVCAR-8 ovarian): 3.1 µM
GI50 (A498 renal): 1560 nM
TGI (A498 renal): 2910 nM
GI50 (OVCAR-4 ovarian): 1300 nM
TGI (OVCAR-4 ovarian): 2580 nM
GI50 (OVCAR-3 ovarian): 1600 nM
TGI (OVCAR-3 ovarian): 2950 nM
GI50 (UACC-257 melanoma): 1480 nM
TGI (UACC-257 melanoma): 2820 nM
GI50 (HOP-62 NSCLC): 2070 nM
TGI (HOP-62 NSCLC): 3.51 µM
GI50 (LOX IMVI melanoma): 1560 nM
TGI (LOX IMVI melanoma): 2920 nM
GI50 (RXF 393 renal): 1580 nM
TGI (RXF 393 renal): 2930 nM
GI50 (NCI/ADR-RES ovarian): 10 µM
TGI (NCI/ADR-RES ovarian): 21.8 µM
GI50 (KM12 colon): 1820 nM
TGI (KM12 colon): 3.25 µM
GI50 (K-562 leukemia): 1890 nM
TGI (K-562 leukemia): 3.3 µM
GI50 (NCI-H23 lung): 1530 nM
TGI (NCI-H23 lung): 2860 nM
GI50 (SNB-19 CNS): 1760 nM
TGI (SNB-19 CNS): 3.16 µM
GI50 (HOP-92 NSCLC): 1560 nM
TGI (HOP-92 NSCLC): 2900 nM
GI50 (UACC-62 melanoma): 1490 nM
TGI (UACC-62 melanoma): 2830 nM
GI50 (TK-10 renal): 1730 nM
TGI (TK-10 renal): 3.11 µM
GI50 (U251 glioblastoma): 1790 nM
TGI (U251 glioblastoma): 3.19 µM
GI50 (NCI-H226 lung): 1640 nM
TGI (NCI-H226 lung): 3.01 µM
GI50 (ACHN renal): 1590 nM
TGI (ACHN renal): 2950 nM
GI50 (DU-145 prostate): 1790 nM
TGI (DU-145 prostate): 3.23 µM
GI50 (RPMI-8226 leukemia): 1720 nM
TGI (RPMI-8226 leukemia): 3.1 µM
GI50 (CAKI-1 renal): 1480 nM
TGI (CAKI-1 renal): 2820 nM
GI50 (EKVX NSCLC): 1660 nM
TGI (EKVX NSCLC): 3.06 µM
GI50 (SW-620 colon): 1800 nM
TGI (SW-620 colon): 3.23 µM
GI50 (SF-539 CNS): 1740 nM
